# In patent US12077503B2, “Substituted cyclic amides and their use as herbicides” (FMC CORPORATION, priority 2015, dated 2024):
# Key:
# Format in all cases: in vivo
# [1] = test system: ducksalad (Heteranthera limosa); assay: Test B flooded paddy test; settings: Flood, 250 g ai/ha; 0 to 100 scale where 0 is no effect and 100 is complete control; 13 to 15 d
# Outline: (§1)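 Evaluation by eye, against controls, occurred 13–15 d post-treatment in a greenhouse, using a 0 (no effect) to 100 (complete control) scale. Application was into the paddy water, 3 cm deep over the soil, on 2-leaf plants.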
# [2] = test system: sedge, umbrella (small-flower umbrella sedge, Cyperus difformis); assay: Test B flooded paddy test; settings: Flood, 250 g ai/ha; 0 to 100 scale where 0 is no effect and 100 is complete control; 13 to 15 d
# Outline: as §1
# [3] = test system: barnyardgrass (Echinochloa crus-galli); assay: Test B flooded paddy test; settings: Flood, 250 g ai/ha; 0 to 100 scale where 0 is no effect and 100 is complete control; 13 to 15 d
# Outline: as §1
# rice (Oryra sativa) = assay: Test B flooded paddy test; settings: Flood, 250 g ai/ha; 0 to 100 scale where 0 is no effect and 100 is complete control; 13 to 15 d
# Outline: as §1
# [4] = test system: ragweed (common ragweed, Ambrosia elatior); assay: Test A preemergence; settings: for Plant response rating, Ragweed: 125 g ai/ha; for Ragweed plant response rating (0 to 100 scale, 0 is no effect, 100 is complete control): visual injury approx. 10 d
# Outline: (§2)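 In a loam soil and sand blend, planted seeds got a preemergence directed soil spray, and young plants at the one- to two-leaf stage, 2–10 cm high, got a postemergence application; ~10 d greenhouse hold; injury rated visually, 0 = none, 100 = complete control.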
# Kochia (Kochia scoparia) [5] = assay: Test A preemergence; settings: for Plant response rating, Kochia: 125 g ai/ha; for Kochia plant response rating (0 to 100 scale, 0 is no effect, 100 is complete control): visual injury approx. 10 d
# Outline: as §2
# [6] = test system: ryegrass, Italian (Italian ryegrass, Lolium multiflorum); assay: Test A preemergence; settings: for Plant response rating, Ryegrass, Italian: 125 g ai/ha; for Ryegrass, Italian plant response rating (0 to 100 scale, 0 is no effect, 100 is complete control): visual injury approx. 10 d
# Outline: as §2
# [7] = test system: barnyardgrass (Echinochloa crus-galli); assay: Test A preemergence; settings: for Plant response rating, Barnyardgrass: 125 g ai/ha; for Barnyardgrass plant response rating (0 to 100 scale, 0 is no effect, 100 is complete control): visual injury approx. 10 d
# Outline: as §2
# [8] = test system: giant foxtail (Setaria faberii); assay: Test A preemergence; settings: for Plant response rating, Foxtail, Giant: 125 g ai/ha; for Foxtail, Giant plant response rating (0 to 100 scale, 0 is no effect, 100 is complete control): visual injury approx. 10 d
# Outline: as §2
# [9] = test system: pigweed (Amaranthus retroflexus); assay: Test A preemergence; settings: for Plant response rating, Pigweed: 125 g ai/ha; for Pigweed plant response rating (0 to 100 scale, 0 is no effect, 100 is complete control): visual injury approx. 10 d
# [10] = test system: ragweed (common ragweed, Ambrosia elatior); assay: Test A postemergence
# Outline: as §2
# [11] = test system: wheat (Triticum aestivum); assay: Test A postemergence
# Outline: as §2
# Kochia (Kochia scoparia) [12] = assay: Test A postemergence
# Outline: as §2
# corn (Zea mays) = assay: Test A postemergence
# Outline: as §2
# [13] = test system: ryegrass, Italian (Italian ryegrass, Lolium multiflorum); assay: Test A postemergence
# Outline: as §2
# [14] = test system: Galium (catchweed bedstraw, Galium aparine); assay: Test A postemergence
# Outline: as §2
# [15] = test system: barnyardgrass (Echinochloa crus-galli); assay: Test A postemergence
# Outline: as §2
# [16] = test system: blackgrass (Alopecurus myosuroides); assay: Test A postemergence
# Outline: as §2
# [17] = test system: giant foxtail (Setaria faberii); assay: Test A postemergence
# Outline: as §2
# [18] = test system: pigweed (Amaranthus retroflexus); assay: Test A postemergence
# Outline: as §2
# [19] = preemergence, 0 to 100 scale (0 no effect, 100 complete control)
# [20] = Preemergence, 500 g ai/ha, 0 is no effect, 100 is complete control
# [21] = 500 g ai/ha, postemergence, 0 to 100 scale, 0 no effect, 100 complete control
# [22] = Postemergence, 125 g ai/ha, visual injury, 0 to 100 scale (0 no effect, 100 complete control), approx. 10 d
# [23] = Preemergence, visual injury after approximately 10 d, 0 to 100 scale where 0 is no effect and 100 is complete control
# [24] = 125 g ai/ha, postemergence, visual rating after approx. 10 d, 0 to 100 scale (0 no effect, 100 complete control)
# [25] = Postemergence, 500 g ai/ha, 0 to 100 scale where 0 is no effect and 100 is complete control
smiles,measurement,setting,value
Cc1ccc(C2CNC(=O)C2C(=O)Nc2ccc(F)cc2F)cc1F (racemic) [Compound 370],"Plant response rating, Ducksalad",[1],100
same,"Plant response rating, Sedge, Umbrella",[2],30
same,"Plant response rating, Barnyardgrass",[3],60
same,"Plant response rating, Rice",rice (Oryra sativa),0
same,"Plant response rating, Ragweed",[4]; [19],0
same,Ragweed plant response rating (0 to 100 scale),[4]; [20],20
same,"Plant response rating, Kochia",Kochia (Kochia scoparia) [5]; [19],0
same,Kochia plant response rating (0 to 100 scale),Kochia (Kochia scoparia) [5]; [20],30
same,"Plant response rating, Ryegrass, Italian",[6]; [19],0
same,"Ryegrass, Italian plant response rating (0 to 100 scale)",[6]; [20],0
same,"Plant response rating, Barnyardgrass",[7]; [19],90
same,Barnyardgrass plant response rating (0 to 100 scale),[7]; [20],90
same,"Plant response rating, Foxtail, Giant",[8]; [19],90
same,"Foxtail, Giant plant response rating (0 to 100 scale)",[8]; [20],90
same,"Plant response rating, Pigweed",[9]; [19],0
same,Pigweed plant response rating (0 to 100 scale),[9]; [20],0
same,"Plant response rating, Ragweed",[10]; [21],50
same,"Plant response rating, Ragweed",[10]; [22],0
same,"Plant response rating, Wheat",[11]; [21],20
same,"Plant response rating, Wheat",[11]; [22],0
same,"Plant response rating, Kochia",Kochia (Kochia scoparia) [12]; [21],0
same,"Plant response rating, Kochia",Kochia (Kochia scoparia) [12]; [22],0
same,"Plant response rating, Corn",corn (Zea mays); [21],20
same,"Plant response rating, Corn",corn (Zea mays); [22],0
same,"Plant response rating, Ryegrass, Italian",[13]; [21],20
same,"Plant response rating, Ryegrass, Italian",[13]; [22],0
same,"Plant response rating, Galium",[14]; [21],60
same,"Plant response rating, Galium",[14]; [22],20
same,"Plant response rating, Barnyardgrass",[15]; [21],90
same,"Plant response rating, Barnyardgrass",[15]; [22],80
same,"Plant response rating, Blackgrass",[16]; [21],40
same,"Plant response rating, Blackgrass",[16]; [22],0
same,"Plant response rating, Foxtail, Giant",[17]; [21],70
same,"Plant response rating, Foxtail, Giant",[17]; [22],40
same,"Plant response rating, Pigweed",[18]; [21],0
same,"Plant response rating, Pigweed",[18]; [22],0
O=C1NCC(c2ccsc2Cl)C1C(=O)Nc1cccc(F)c1F (stereo not drawn) [Compound 600],"Plant response rating, Ducksalad",[1],85
same,"Plant response rating, Sedge, Umbrella",[2],0
same,"Plant response rating, Barnyardgrass",[3],0
same,"Plant response rating, Rice",rice (Oryra sativa),15
same,"Plant response rating, Ragweed",[4]; [23],0
same,"Ragweed plant response rating (0 to 100 scale, 0 is no effect, 100 is complete control)","[4]; Preemergence, 500 g ai/ha",0
same,"Plant response rating, Kochia",Kochia (Kochia scoparia) [5]; [23],0
same,"Kochia plant response rating (0 to 100 scale, 0 is no effect, 100 is complete control)","Kochia (Kochia scoparia) [5]; Preemergence, 500 g ai/ha",20
same,"Plant response rating, Ryegrass, Italian",[6]; [23],0
same,"Ryegrass, Italian plant response rating (0 to 100 scale, 0 is no effect, 100 is complete control)","[6]; Preemergence, 500 g ai/ha",0
same,"Plant response rating, Barnyardgrass",[7]; [23],30
same,"Barnyardgrass plant response rating (0 to 100 scale, 0 is no effect, 100 is complete control)","[7]; Preemergence, 500 g ai/ha",90
same,"Plant response rating, Foxtail, Giant",[8]; [23],30
same,"Foxtail, Giant plant response rating (0 to 100 scale, 0 is no effect, 100 is complete control)","[8]; Preemergence, 500 g ai/ha",90
same,"Plant response rating, Pigweed",[9]; [23],0
same,"Pigweed plant response rating (0 to 100 scale, 0 is no effect, 100 is complete control)","[9]; Preemergence, 500 g ai/ha",0
same,"Plant response rating, Ragweed",[10]; [24],0
same,"Plant response rating, Ragweed",[10]; [25],0
same,"Plant response rating, Wheat",[11]; [24],0
same,"Plant response rating, Wheat",[11]; [25],0
same,"Plant response rating, Kochia",Kochia (Kochia scoparia) [12]; [24],0
same,"Plant response rating, Kochia",Kochia (Kochia scoparia) [12]; [25],0
same,"Plant response rating, Corn",corn (Zea mays); [24],0
same,"Plant response rating, Corn",corn (Zea mays); [25],0
same,"Plant response rating, Ryegrass, Italian",[13]; [24],0
same,"Plant response rating, Ryegrass, Italian",[13]; [25],0
same,"Plant response rating, Galium",[14]; [24],0
same,"Plant response rating, Galium",[14]; [25],0
same,"Plant response rating, Barnyardgrass",[15]; [24],0
same,"Plant response rating, Barnyardgrass",[15]; [25],90
same,"Plant response rating, Blackgrass",[16]; [24],0
same,"Plant response rating, Blackgrass",[16]; [25],0
same,"Plant response rating, Foxtail, Giant",[17]; [24],0
same,"Plant response rating, Foxtail, Giant",[17]; [25],30
same,"Plant response rating, Pigweed",[18]; [24],0
same,"Plant response rating, Pigweed",[18]; [25],0
O=C1NCC(c2cccc(C(F)(F)F)c2F)C1C(=O)Nc1ccc(F)cc1F (stereo not drawn) [Compound 592],"Plant response rating, Ducksalad",[1],80
same,"Plant response rating, Sedge, Umbrella",[2],0
same,"Plant response rating, Barnyardgrass",[3],55
same,"Plant response rating, Rice",rice (Oryra sativa),0
same,"Plant response rating, Ragweed",[4]; [23],0
same,"Ragweed plant response rating (0 to 100 scale, 0 is no effect, 100 is complete control)","[4]; Preemergence, 500 g ai/ha",20
same,"Plant response rating, Kochia",Kochia (Kochia scoparia) [5]; [23],0
same,"Kochia plant response rating (0 to 100 scale, 0 is no effect, 100 is complete control)","Kochia (Kochia scoparia) [5]; Preemergence, 500 g ai/ha",30
same,"Plant response rating, Ryegrass, Italian",[6]; [23],0
same,"Ryegrass, Italian plant response rating (0 to 100 scale, 0 is no effect, 100 is complete control)","[6]; Preemergence, 500 g ai/ha",50
same,"Plant response rating, Barnyardgrass",[7]; [23],90
same,"Barnyardgrass plant response rating (0 to 100 scale, 0 is no effect, 100 is complete control)","[7]; Preemergence, 500 g ai/ha",90
same,"Plant response rating, Foxtail, Giant",[8]; [23],90
same,"Foxtail, Giant plant response rating (0 to 100 scale, 0 is no effect, 100 is complete control)","[8]; Preemergence, 500 g ai/ha",90
same,"Plant response rating, Pigweed",[9]; [23],0
same,"Pigweed plant response rating (0 to 100 scale, 0 is no effect, 100 is complete control)","[9]; Preemergence, 500 g ai/ha",0
same,"Plant response rating, Ragweed",[10]; [24],0
same,"Plant response rating, Ragweed",[10]; [25],0
same,"Plant response rating, Wheat",[11]; [24],30
same,"Plant response rating, Wheat",[11]; [25],70
same,"Plant response rating, Kochia",Kochia (Kochia scoparia) [12]; [24],0
same,"Plant response rating, Kochia",Kochia (Kochia scoparia) [12]; [25],40
same,"Plant response rating, Corn",corn (Zea mays); [24],50
same,"Plant response rating, Corn",corn (Zea mays); [25],70
same,"Plant response rating, Ryegrass, Italian",[13]; [24],0
same,"Plant response rating, Ryegrass, Italian",[13]; [25],0
same,"Plant response rating, Galium",[14]; [24],20
same,"Plant response rating, Galium",[14]; [25],30
same,"Plant response rating, Barnyardgrass",[15]; [24],80
same,"Plant response rating, Barnyardgrass",[15]; [25],90
same,"Plant response rating, Blackgrass",[16]; [24],30
same,"Plant response rating, Blackgrass",[16]; [25],60
same,"Plant response rating, Foxtail, Giant",[17]; [24],80
same,"Plant response rating, Foxtail, Giant",[17]; [25],90
same,"Plant response rating, Pigweed",[18]; [24],0
same,"Plant response rating, Pigweed",[18]; [25],0
